Results taken from patent US12606558B2, “Condensed pyrazole derivatives as inhibitors of SARM1” (Disarm Therapeutics, Inc., priority 2020, dated 2026).

Target: T1, SARM1 (Homo sapiens, UniProt Q6SZW1)
T1 construct: made in house; host or cells: NRK1-HEK293T cells, transient transfection; clarified lysate used without purification
T1 sequence (Q6SZW1 with tags, fused parts or gaps): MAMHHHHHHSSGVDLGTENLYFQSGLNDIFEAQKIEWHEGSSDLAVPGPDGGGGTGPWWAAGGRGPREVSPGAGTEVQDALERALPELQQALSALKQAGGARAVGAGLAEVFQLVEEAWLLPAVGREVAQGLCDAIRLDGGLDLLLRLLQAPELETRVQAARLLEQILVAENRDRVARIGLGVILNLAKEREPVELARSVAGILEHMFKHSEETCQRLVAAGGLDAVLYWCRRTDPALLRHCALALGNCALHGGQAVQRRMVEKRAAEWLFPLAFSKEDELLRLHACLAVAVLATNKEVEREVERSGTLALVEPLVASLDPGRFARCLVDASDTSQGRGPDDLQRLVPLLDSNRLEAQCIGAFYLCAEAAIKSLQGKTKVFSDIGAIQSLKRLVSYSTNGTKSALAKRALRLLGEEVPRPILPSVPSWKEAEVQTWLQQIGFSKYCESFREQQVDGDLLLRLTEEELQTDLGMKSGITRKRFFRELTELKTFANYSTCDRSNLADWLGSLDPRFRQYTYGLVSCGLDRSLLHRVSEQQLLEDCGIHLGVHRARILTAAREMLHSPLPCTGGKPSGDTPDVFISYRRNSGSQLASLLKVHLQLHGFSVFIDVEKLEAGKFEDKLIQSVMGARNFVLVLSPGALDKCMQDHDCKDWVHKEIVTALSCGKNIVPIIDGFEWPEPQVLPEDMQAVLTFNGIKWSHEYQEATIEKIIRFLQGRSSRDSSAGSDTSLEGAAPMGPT
Experiment: ARM-SAM-TIR SARM1 IC50 assay (NADase activity, NAD+ cleavage)
Assay type: biochemical
Details: ARM-SAM-TIR lysate 5 μg/mL, 2 h pre-incubation, 5 μM NAD+, 2 hr room temperature, RapidFire mass spectrometry of NAD+ and ADPR
Experimental: This Example describes an assay of ARM-SAM-TIR NADase activity and use of this assay to measure the efficacy of compounds of Formula I/II to block SARM1 mediated NAD+ cleavage. This assay was optimized in such a way as to characterize the efficacy of the compounds in Formula I/II to inhibit SARM1 activity and to calculate an IC50 value for each compound. This assay makes use of full length SARM1, which encompasses the ARM, SAM and TIR domains.
NRK1-HEK293T cells were seeded onto 150 cm^2 plates at 20×10^6 cells per plate. The next day, the cells were transfected with 15 μg ARM-SAM-TIR expression plasmid, SEQ ID NO: 1.
The cultures were supplemented with 1 mM NR at time of transfection to minimize toxicity from ARM-SAM-TIR overexpression. Forty-eight hours after transfection, cells were harvested, pelleted by centrifugation at 1,000 rpm (Sorvall ST 16R centrifuge, Thermo Fisher), and washed once with cold PBS (0.01 M phosphate buffered saline NaCl 0.138 M; KCl 0.0027 M; pH 7.4). The cells were resuspended in PBS with protease inhibitors (cOmplete™ protease inhibitor cocktail, Roche product #11873580001) and cell lysates were prepared by sonication (Branson Sonifer 450, output=3, 20 episodes of stroke). The lysates were centrifuged (12,000×g for 10 min at 4° C.) to remove cell debris and the supernatants (containing ARM-SAM-TIR protein) were stored at −80° C. for later use in the in vitro ARM-SAM-TIR NADase assay (see below). Protein concentration was determined by the Bicinchoninic (BCA) method and used to normalize lysate concentrations.
The enzymatic assay was performed in a 384-well polypropylene plate in Dulbecco's PBS buffer in a final assay volume of 20 μL. ARM-SAM-TIR lysate with a final concentration of 5 μg/mL was pre-incubated with the respective compound at 1% DMSO final assay concentration over 2 h at room temperature. The reaction was initiated by addition of 5 μM final assay concentration of NAD+ as substrate. After a 2 hr room temperature incubation, the reaction was terminated with 40 μL of stop solution of 7.5% trichloroactetic acid in acetonitrile. The NAD+ and ADPR concentrations were analyzed by a RapidFire High Throughput Mass Spectrometry System (Agilent Technologies, Santa Clara, Calif.) using an API4000 triple quadrupole mass spectrometer (AB Sciex Framingham, Mass.).

IC50 [nM]	Compound
< 100	O=C1CCN(C(=O)CCc2ccc(Cl)cc2)c2[nH]nc(-c3ccncc3)c21 [Example 17]
< 100	O=C(CCc1ccc(Cl)cc1)N1CCCc2c(-c3ccncc3)n[nH]c21 [Example 2]
< 100	N#Cc1ccc(CCC(=O)N2CCCc3c(-c4ccnnc4)n[nH]c32)cc1 [Example 9]
< 100	O=C(CCc1ccc(Cl)cc1)N1CCOc2c(-c3ccncc3)n[nH]c21 [Example 3]
100 to 1000	O=C1CCN(C(=O)CCc2ccc(Cl)nc2)c2[nH]nc(-c3ccncc3)c21 [Example 18]
< 100	O=C(CCc1ccc(Cl)c(F)c1)N1CCCc2c(-c3ccncc3)n[nH]c21 [Example 13]
100 to 1000	O=C(CCc1ccc(Cl)nc1)N1CCC(O)c2c(-c3ccncc3)n[nH]c21 (centres unmarked) [Example 20]
< 100	O=C(CCc1cnc(Cl)c(F)c1)N1CCCc2c(-c3ccncc3)n[nH]c21 [Example 11]
1010 to 5000	O=C(NCc1ccc(Cl)cc1)N1CCCc2c(-c3ccncc3)n[nH]c21 [Example 5]
< 100	O=C(CCc1ccc(Cl)nc1)N1CCCc2c(-c3ccnnc3)n[nH]c21 [Example 10]
100 to 1000	O=C(CCc1ccc(Cl)nc1)N1CCCc2c(-c3ccncc3)n[nH]c21 [Example 1]
< 100	O=C(CCc1ccc(Cl)cc1)N1CCCc2c(-c3ccnnc3)n[nH]c21 [Example 7]
< 100	O=C(CCc1ccc(Cl)cc1)N1CCOc2c(-c3ccnnc3)n[nH]c21 [Example 6]
< 100	O=C(CCc1cnc(Cl)c(F)c1)N1CCCc2c(-c3ccnnc3)n[nH]c21 [Example 12]
< 100	N#Cc1ccc(CCC(=O)N2CCCc3c(-c4ccnnc4)n[nH]c32)cc1F [Example 16]
< 100	O=C(CCc1ccc(Cl)c(F)c1)N1CCCc2c(-c3ccnnc3)n[nH]c21 [Example 15]
> 10000	O=C(NCc1ccc(Cl)nc1)N1CCCc2c(-c3ccncc3)n[nH]c21 [Example 4]
< 100	O=C(CCc1ccc(Cl)cc1)N1CCC(O)c2c(-c3ccncc3)n[nH]c21 (centres unmarked) [Example 19]
100 to 1000	N#Cc1ccc(CCC(=O)N2CCCc3c(-c4ccncc4)n[nH]c32)cc1 [Example 8]
< 100	N#Cc1ccc(CCC(=O)N2CCCc3c(-c4ccncc4)n[nH]c32)cc1F [Example 14]
